Assay results: PMC7481482, “Development of Anthraquinone Derivatives as Ectonucleoside Triphosphate Diphosphohydrolase (NTPDase) Inhibitors With Selectivity for NTPDase2 and NTPDase3” (Frontiers in Pharmacology, 2020)

Key:
rat NTPDase1 = settings: cited from earlier work; for IC50: rat enzyme, ref Baqi et al., 2009b
rat NTPDase2 = settings: cited from earlier work; for IC50: rat enzyme, ref Baqi et al., 2009b
rat NTPDase3 = settings: cited from earlier work; for IC50: rat enzyme, ref Baqi et al., 2009b
human NTPDase2 [1] = target: T1, human NTPDase2 (Homo sapiens, UniProt Q9Y5L3); settings: ref Lévesque et al., 2007; cited from earlier work
T1 construct: expressed in transfected cells; host or cells: COS-7 cells (membrane preparation)
T1 sequence (Q9Y5L3 1-495): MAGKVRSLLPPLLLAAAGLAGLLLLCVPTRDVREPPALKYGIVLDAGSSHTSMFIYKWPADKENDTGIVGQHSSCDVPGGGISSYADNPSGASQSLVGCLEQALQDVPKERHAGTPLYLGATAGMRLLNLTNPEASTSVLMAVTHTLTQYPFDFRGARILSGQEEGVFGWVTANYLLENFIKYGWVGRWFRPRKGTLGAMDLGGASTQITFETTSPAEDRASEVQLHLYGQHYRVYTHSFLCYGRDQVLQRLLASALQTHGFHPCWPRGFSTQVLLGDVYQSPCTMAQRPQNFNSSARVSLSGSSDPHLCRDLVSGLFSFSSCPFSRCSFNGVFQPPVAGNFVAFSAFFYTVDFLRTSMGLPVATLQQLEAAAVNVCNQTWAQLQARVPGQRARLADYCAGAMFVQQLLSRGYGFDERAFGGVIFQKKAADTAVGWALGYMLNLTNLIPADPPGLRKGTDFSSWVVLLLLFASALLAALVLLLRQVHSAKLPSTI

human NTPDase8 [2] = target: T2, human NTPDase8 (Homo sapiens, UniProt Q5MY95); design: method as in Lévesque et al., 2007; settings: ref Lévesque et al., 2007; cited from earlier work
T2 construct: expressed in transfected cells; host or cells: COS-7 cells (membrane preparation)
T2 sequence (Q5MY95 1-495): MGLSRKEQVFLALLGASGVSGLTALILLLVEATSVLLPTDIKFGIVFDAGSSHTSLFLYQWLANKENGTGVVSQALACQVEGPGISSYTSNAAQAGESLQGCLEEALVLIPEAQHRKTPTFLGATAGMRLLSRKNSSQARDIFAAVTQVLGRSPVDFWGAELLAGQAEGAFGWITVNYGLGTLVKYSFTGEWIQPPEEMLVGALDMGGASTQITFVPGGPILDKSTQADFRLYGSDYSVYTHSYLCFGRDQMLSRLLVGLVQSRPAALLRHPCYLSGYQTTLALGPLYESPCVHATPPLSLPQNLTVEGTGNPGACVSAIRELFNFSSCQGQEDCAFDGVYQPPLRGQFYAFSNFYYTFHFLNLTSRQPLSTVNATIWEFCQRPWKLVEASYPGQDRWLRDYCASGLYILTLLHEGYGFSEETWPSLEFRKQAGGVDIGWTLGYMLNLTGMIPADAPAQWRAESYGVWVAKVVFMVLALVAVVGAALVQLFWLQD

NTPDase1 = target: NTPDase1; design: method as in Lecka et al., 2013; settings: ref Lecka et al., 2013; cited from earlier work
human NTPDase1 = target: T3, human NTPDase1 (Homo sapiens, UniProt P49961); assay: Malachite green assay, human NTPDase1; type: biochemical; settings: 2 μM compound; 50 µM ATP; COS-7 membrane preparation; read-out: % inhibition at 2 μM concentration, NTPDase1
T3 construct: expressed in transfected cells; host or cells: COS-7 cells (membrane preparation)
T3 sequence (P49961 1-510): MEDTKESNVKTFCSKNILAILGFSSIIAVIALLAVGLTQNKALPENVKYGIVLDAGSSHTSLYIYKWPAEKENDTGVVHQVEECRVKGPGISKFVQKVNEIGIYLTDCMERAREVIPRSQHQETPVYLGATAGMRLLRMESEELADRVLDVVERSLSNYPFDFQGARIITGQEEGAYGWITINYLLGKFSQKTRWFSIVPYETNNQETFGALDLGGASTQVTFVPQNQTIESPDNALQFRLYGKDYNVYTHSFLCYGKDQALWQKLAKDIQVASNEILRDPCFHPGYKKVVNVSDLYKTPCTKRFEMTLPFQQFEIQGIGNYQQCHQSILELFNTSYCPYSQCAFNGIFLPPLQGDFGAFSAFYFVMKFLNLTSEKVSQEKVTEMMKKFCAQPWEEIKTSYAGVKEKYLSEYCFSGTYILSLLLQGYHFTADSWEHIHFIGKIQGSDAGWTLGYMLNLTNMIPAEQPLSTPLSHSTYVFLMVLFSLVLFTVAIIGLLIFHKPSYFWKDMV
In short: (§1)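 COS-7 membranes expressing each NTPDase were preincubated with compound for 5 min at 37 °C, pH 7.4 HEPES buffer with 2 mM CaCl2/1 mM MgCl2. ATP was 50 µM for NTPDase1 and 100 µM for -2, -3, -8; reaction ran 15 min at 37 °C. Released phosphate read by malachite green at 600 nm; screen at 2 µM, IC50 over 0.03–30 µM in 2% DMSO.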

human NTPDase2 [3] = target: T1, human NTPDase2; assay: Malachite green assay, human NTPDase2; type: biochemical; settings: for inhibition at 2 µM: 2 μM compound, read-out: % inhibition at 2 μM concentration, NTPDase2
In short: as §1

human NTPDase3 = target: T4, human NTPDase3 (Homo sapiens, UniProt O75355); assay: Malachite green assay, human NTPDase3; type: biochemical; settings: 2 μM compound; 100 µM ATP; COS-7 membrane preparation; read-out: % inhibition at 2 μM concentration, NTPDase3
T4 construct: expressed in transfected cells; host or cells: COS-7 cells (membrane preparation)
T4 sequence (O75355 1-529): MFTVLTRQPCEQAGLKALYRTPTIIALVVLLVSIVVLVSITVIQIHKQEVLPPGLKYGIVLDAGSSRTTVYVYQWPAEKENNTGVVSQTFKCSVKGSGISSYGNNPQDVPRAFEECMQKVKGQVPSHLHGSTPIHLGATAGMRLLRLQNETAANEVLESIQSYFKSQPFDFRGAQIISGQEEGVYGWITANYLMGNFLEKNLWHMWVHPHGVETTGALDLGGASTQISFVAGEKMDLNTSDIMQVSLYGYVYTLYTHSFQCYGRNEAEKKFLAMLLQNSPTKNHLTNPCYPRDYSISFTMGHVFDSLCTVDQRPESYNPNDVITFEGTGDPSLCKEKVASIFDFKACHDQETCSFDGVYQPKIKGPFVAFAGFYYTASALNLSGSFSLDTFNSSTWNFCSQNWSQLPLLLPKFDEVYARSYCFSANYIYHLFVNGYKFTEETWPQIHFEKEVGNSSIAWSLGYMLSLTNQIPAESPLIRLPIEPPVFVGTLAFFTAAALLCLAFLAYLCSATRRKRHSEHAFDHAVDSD
In short: as §1

human NTPDase8 [4] = target: T2, human NTPDase8; assay: Malachite green assay, human NTPDase8; type: biochemical; settings: 2 μM compound; 100 µM ATP; COS-7 membrane preparation; read-out: % inhibition at 2 μM concentration, NTPDase8
In short: as §1

rat CD73 = test system: rat CD73; design: method as in Baqi et al., 2010; settings: 1 mM concentration; ref Baqi et al., 2010; cited from earlier work
[5] = 100 µM ATP, COS-7 membrane preparation

| inhibition at 2 µM (human NTPDase1) [%] | inhibition at 2 µM (human NTPDase2 [3]; [5]) [%] | inhibition at 2 µM (human NTPDase3) [%] | inhibition at 2 µM (human NTPDase8 [4]) [%] | melting point [°C] | Compound | further results |
| --- | --- | --- | --- | --- | --- | --- |
| – | – | – | – | – | [TiW11CoO40]^8- [Compound 9, reference compound] | inhibition of rat NTPDase1 (concentration range in words) (rat NTPDase1; ref Müller et al., 2006): submicromolar concentration range; inhibition of rat NTPDase2 (concentration range in words) (rat NTPDase2; ref Müller et al., 2006): submicromolar concentration range; inhibition of rat NTPDase3 (concentration range in words) (rat NTPDase3; ref Müller et al., 2006): submicromolar concentration range |
| – | – | – | – | – | CCN(CC)c1ncnc2c1ncn2[C@@H]1O[C@H](COP(=O)(O)OP(=O)(O)C(Br)(Br)P(=O)(O)O)[C@@H](O)[C@H]1O [ARL67156] | inhibition of human NTPDase2 (in words) (human NTPDase2 [1]): does not inhibit; inhibition of human NTPDase8 (in words) (human NTPDase8 [2]): does not inhibit |
| – | – | – | – | – | CCCCSc1nc2c(N)ncnc2n1[C@@H]1O[C@H](COP(=O)(O)OP(=O)(O)OP(=O)(O)O)[C@@H](O)[C@H]1O [8-BuS-ATP] | Ki (NTPDase1): 0.8 µM |
| -4 | 22 | 1 | -21 | – | Cc1cccc(Nc2cc(S(=O)(=O)O)c(N)c3c2C(=O)c2ccccc2C3=O)c1 [Compound 6, reference compound] | IC50 (rat NTPDase1): 51.5 µM; IC50 (rat NTPDase2): 12.8 µM; IC50 (rat NTPDase3): 19.1 µM |
| 14 | -6 | 9 | -1 | > 300 | O=C1c2ccccc2C(=O)c2c(Nc3cccc(F)c3)cc(S(=O)(=O)O)cc21 [Compound 57, 4-(3-Fluorophenylamino)-9,10-dioxo-9,10-dihydroanthracene-2-sulfonic acid] | – |
| -8 | 5 | -12 | -6 | > 300 | Nc1c(S(=O)(=O)[O-])cc(Nc2ccc(O)cc2F)c2c1C(=O)c1ccccc1C2=O.[Na+] [Compound 37, Sodium 1-amino-4-(2-fluoro-4-hydroxyphenylamino)-9,10-dioxo-9,10-dihydroanthracene-2-sulfonate] | – |
| 1 | 16 | -2 | 7 | > 300 | Nc1c(S(=O)(=O)[O-])cc(Nc2cccc(Cl)c2Cl)c2c1C(=O)c1ccccc1C2=O.[Na+] [Compound 34, Sodium 1-amino-4-(2,3-dichlorophenylamino)-9,10-dioxo-9,10-dihydroanthracene-2-sulfonate] | – |

| Compound | inhibition at 2 µM (human NTPDase1) [%] | inhibition at 2 µM (human NTPDase2 [3]; [5]) [%] | inhibition at 2 µM (human NTPDase3) [%] | inhibition at 2 µM (human NTPDase8 [4]) [%] | melting point [°C] | further results |
| --- | --- | --- | --- | --- | --- | --- |
| Nc1c(S(=O)(=O)O)cc(Nc2ccc3ccccc3c2)c2c1C(=O)c1ccccc1C2=O [Compound 18] | -8 | 34 | -9 | 3 | – | IC50 (rat NTPDase1): 0.328 µM; IC50 (rat NTPDase2): 19.1 µM; IC50 (rat NTPDase3): 2.22 µM |
| Nc1c(S(=O)(=O)O)cc(Nc2cc3ccccc3c3ccccc23)c2c1C(=O)c1ccccc1C2=O [Compound 20, 1-amino-4-(9-phenanthrylamino)-9,10-dioxo-9,10-dihydroanthracene-2-sulfonate] | -7 | – | -5 | 6 | – | IC50 (human NTPDase2 [3]; 100 µM ATP, COS-7 membrane preparation, read-out: IC50 ± SEM, NTPDase2): 0.539 ± 0.29 µM; inhibition type, NTPDase2 (human NTPDase2 [3]; Hanes-Woolf plot, 25-200 µM ATP, inhibitor 0, 0.25, 0.5, 1 µM): non-competitive; % inhibition of CD73 at 1 mM concentration (rat CD73): 58% |
